Test results from patent publication US4918077A, “3-phenyl-5,6-dihydrobenz(c)acridine-7-carboxylic acids and related compounds as cancer chemotherapeutic agents” (E. I. Du Pont de Nemours & Co., Inc., priority 1989, dated 1990).
≈ marks a conversion by molar mass, not a printed value.

Tests used:
[1] = test system: human melanoma RPMI-7272 cells; assay: In Vitro RPMI-7272 Human Melanoma Test; type: cell-based; details: 72 hours after addition of compound, read-out: ID50 (dose required to inhibit the number of cell doublings by 50%)
Procedure: The compounds of this invention were also tested for their ability to inhibit the growth of human melanoma RPMI-7272 cells in vitro.
Cells are seeded at 3×10^5 per 35 mm plate to initiate growth inhibition studies. Cultures to receive growth medium only (control cultures) are set up in quadruplicate; cultures to receive varying concentrations of compounds are set up at one dish per dose of compound. Twenty-four hours post-seeding, duplicate control cell cultures are trypsinized and cells are counted using a Coulter Counter (day 1 control counts). At this time, varying concentrations of test compounds, from 100 to 0.00001 μg/mL are added to cultures and growth medium only is added to control cultures. Seventy-two hours after the addition of compound, cells are trypsinized and counted. The numbers of cell population doublings (day 4) in the presence or absence of compound are calculated.
Compounds are dissolved at 10-25 mg/mL in dimethylsulfoxide. Dilutions to 1 mg/mL in complete growth medium are made, followed by stock preparations of 100 and 30 μg/mL in complete growth medium. Serial ten-fold dilutions in complete medium are formulated from the 100 and 30 μg/mL stocks, respectively, and added to cultures.

L1210 leukemia = assay: L1210 Murine Leukemia Test; type: in vivo, mouse; details: intraperitoneal, once daily for nine days
Procedure: (§1) The efficacy of the compounds of this invention against transplanted mouse tumors was evaluated in test systems which are used by the National Cancer Institute for the detection and assessment of anticancer activity. […] J. Cancer, 17, 129-142, (1981); Venditti, J. M., Seminars in Oncology, 8(4)(1981); Goldin, A. and J. M. Venditti in Recent Results in Cancer Research, 70, S. K. Carter and Y. Sakurai, Eds., Springer-Verlag, Berlin/Heidelberg, 1980].
The L1210 tumor line originated in 1948 as a lymphocytic leukemia in a female DBA/2 mouse after the skin was treated with 0.2% 20-methylcholanthrene in ethyl ether. The tumor line is maintained by serial passage in female DBA/2 mice.
On day, 0, female CDF1 mice weighing 18-22 g are inoculated with 1×10^5 L1210 leukemia cells harvested from the ascites of DBA/2 mice. The mice are randomized into groups of six each and the test compounds and vehicle control are administered intraperitoneally once daily for nine consecutive days beginning on day 1. A ≥20% decrease in body weight on day 5 is considered an indication of toxicity. The acceptable control mean survival time is 8-11 days.
Results are expressed as percentage of the mean survival time of the vehicle-treated control group according to the formula: [formula] Mice which survive for 30 days are considered cured and are not included in the calculation of the mean survival time.
The NCI criteria for activity is used. A compound is considered to have moderate activity against L1210 leukemia if it has a % T/C≥125%, and it is considered to have good activity against L1210 leukemia if it has a % T/C≥150%.

B16 melanoma = assay: B16 Murine Melanoma Test; type: in vivo, mouse; details: intraperitoneal, once daily for nine days
Procedure: as §1
The B16 tumor line arose spontaneously in 1954 on the skin at the base of the ear of a C57BL mouse. The tumor line is maintained by serial passage in female C57BL mice.
On day 0, female B6C3F1 mice are inoculated intraperitoneally with 0.5 mL of a 10% tumor brei. This brei is prepared by homogenizing fresh B16 tumors, grown subcutaneously in C57BL mice, in cold physiological saline. Mice are randomized in groups of ten each, with 20 animals being in the control group. The test compounds and vehicle control are administered intraperitoneally once daily for nine consecutive days beginning on day 1. A ≥20% decrease in body weight on day 5 is considered an indication of toxicity. The acceptable mean control survival time is 14-22 days. Results are expressed as a percentage of the mean survival time of the vehicle-treated control group according to the formula: [formula] […]

[2] = test system: DLD-2 human colon carcinoma xenograft; assay: DLD-2 Human Colon Carcinoma Xenograft Test; type: in vivo, human tumor in athymic (NU/NU) mice; details: dose 50 mg/kg, intraperitoneal, once daily for nine days
Procedure: as §1
The DLD-2 tumor line was orignally obtained from a primary colon carcinoma surgically removed from a patient. The line is maintained by serial passage in athymic nude mice.
On day 0, male and female outbred Swiss mice bearing the NU/NU gene and weighing 22-30 g are inoculated with 0.2 mL of a 25% tumor mince. […] Tumor measurements and weights are recorded once a week. […]
The efficacy of the test compounds is determined by the extent of tumor growth inhibition in treated versus vehicle-treated control mice. Initial tumor weights (mg) are calculated from the tumor dimensions (mm) using the formula for the volume of a prolate ellipsoid (L×W^2 /2). Net tumor weights are calculated for each of the treated groups and the vehicle-treated control group by subtracting the initial tumor weight (estimated) from the final tumor weight (actual) on day 19. […] Results are expressed as percent inhibition of control growth according to the formula: [formula] […]

Q: For O=C(O)c1c2c(nc3ccc(F)cc13)-c1cc3sc4ccccc4c3cc1CC2 [Example 27, 6,7-Dihydro-3-fluoro[1]-benzothieno[2',3':4,5]benz[1,2-c]acridine-5-carboxylic acid], which IC50 [1] is on record?
A: Its IC50 is 1.4 mg/L (≈ 3.5 µM).

Q: What about the “% T/C (mean survival time, percentage of vehicle-treated control)” value (L1210 leukemia; dose 100 mg/kg) of the same compound?
A: Its value is 149%.

Q: With O=C(O)c1c2c(nc3ccccc13)-c1ccc(-c3ccccc3)cc1CC2 [Example 1, 5,6-Dihydro-3-phenylbenz[c]acridine-7-carboxylic acid] as the compound, how does the IC50 [1] read?
A: The IC50 was 14.1 mg/L (≈ 40.1 µM).

Q: And the “% T/C (mean survival time, percentage of vehicle-treated control)” value (L1210 leukemia; dose 100 mg/kg)?
A: Its value is 178%.

Q: Which results are given for O=C(O)c1c2c(nc3ccc(F)cc13)-c1ccc(-c3ccccc3)cc1CC2 [Example 3, 5,6-Dihydro-9-fluoro-3-phenylbenz[c]acridine-7-carboxylic acid]?
A: IC50 [1]: 0.05 mg/L (≈ 0.135 µM); % T/C (mean survival time, percentage of vehicle-treated control) (L1210 leukemia; dose 100 mg/kg): 180%; % T/C (mean survival time, percentage of vehicle-treated control) (B16 melanoma; dose 35 mg/kg): 134%; % Inhibition (tumor growth) [2]: 70%

Q: For O=C([O-])c1c2c(nc3ccc(F)cc13)-c1ccc(-c3ccccc3)cc1CC2.[Na+] [Example 12, 5,6-Dihydro-9-fluoro-3-phenylbenz[c]acridine-7-carboxylic acid, sodium salt], which IC50 [1] is on record?
A: Its IC50 is 0.06 mg/L.

Q: What about the “% T/C (mean survival time, percentage of vehicle-treated control)” value (L1210 leukemia; dose 50 mg/kg) of the same compound?
A: Its value is 171%.

Q: What about the “% T/C (mean survival time, percentage of vehicle-treated control)” value (B16 melanoma; dose 50 mg/kg) of the same compound?
A: The value was 140%.

Q: With O=C(O)c1c2c(nc3ccccc13)-c1cc3sc4ccccc4c3cc1CC2 [Example 24] as the compound, how does the IC50 [1] read?
A: The IC50 was 1.96 mg/L (≈ 5.14 µM).
